In brackets after ≈: the same amount, converted by molar mass. Where two headings read alike, the source gives them in different places.
Tests used:
[1] = Metabolic stability in human liver microsomes; format: in vitro ADME; conditions: pH 7.4, human liver microsomes
Method: The tested compounds were incubated in duplicate with human liver microsomes at 37° C. The reaction contained microsomal protein in 100 mM potassium phosphate, 2 mM NADPH, 3 mM MgCl2, pH 7.4. A control was run for each test agent omitting NADPH to detect NADPH-free degradation. At 0, 10, 20, 40, and 60 minutes, an aliquot was removed from each experimental and control reaction and mixed with an equal volume of ice-cold Stop Solution (methanol containing haloperidol, diclofenac, or other internal standard). Stopped reactions are incubated at least ten minutes at −20° C., and an additional volume of water was added. The samples were centrifuged to remove precipitated protein, and the supernatants were analyzed by LC/MS/MS to quantitate the remaining parent. Data are converted to % remaining by dividing by the time zero concentration value. Data are fit to a first-order decay model to determine half-life. Intrinsic clearance is calculated from the half-life and the protein concentrations: CLint=ln(2)/(T1/2 [microsomal protein]).

VRSA10 = test: MIC/MBC clinical isolate panel (Table 3); format: cell-based, S. aureus; conditions: Staphylococcus aureus, Table 3, VRSA10
Method: (§1) MRSA clinical isolates, and vancomycin-resistant Staphylococcus aureus (VRSA) strain were obtained through the Network of Antimicrobial Resistance in Staphylococcus aureus (NARSA) program. In addition, vancomycin-resistant Enterococcus faecium (VRE) strain was obtained from the ATCC. Bacteria were cultured in cation-adjusted Mueller Hinton broth in a 96-well plate. Compounds, using triplicate samples, were added to the plate and serially diluted. […] Plates were visually inspected and the MIC was categorized as the concentration at which no visible growth of bacteria was observed. The average of triplicate MIC determinations is reported.
(§2) The minimum inhibitory concentration (MIC) of tested compounds and control antibiotics were determined using the broth microdilution method in accordance with the recommendations contained in the Clinical and Laboratory Standards Institute guidelines, against methicillin-sensitive (ATCC 6538 and NRS107), methicillin-resistant (MRSA), and vancomycin-resistant (VRSA) Staphylococcus aureus, Staphylococcus epidermidis, Enterococcus faecalis, E. faecium, Listeria monocytogenes, and Streptococcus pneumoniae clinical isolates. A bacterial solution equivalent to 0.5 McFarland standard was prepared and diluted in cation-adjusted Mueller-Hinton broth (CAMHB) to achieve a bacterial concentration of about 5×10^5 CFU/mL and seeded in 96-well plates. Enterococcus faecium was diluted in brain heart infusion broth. Enterococcus faecalis, Streptococcus pneumonia and Listeria monocytogenes were diluted in tryptone soya broth (TSB). Compounds and control drugs were added in the first row of 96-well plates and serially diluted (to achieve a concentration gradient ranging from 128 to 1 μg/mL). Plates were then incubated aerobically at 37° C. for at least 18 hours. The minimum bactericidal concentration (MBC) of the active compounds was tested by plating 5 μL from wells with no growth onto Tryptic soy agar (TSA) plates.

VRE ATCC 700221 = test: MIC/MBC clinical isolate panel (Table 3); format: cell-based, Enterococcus faecium; conditions: Enterococcus, Table 3, VRE ATCC 700221
Method: as §1, §2

[2] = PBS solubility screen (turbidometric); format: physicochemical; conditions: aqueous buffer, kinetic from dmso stock
Method: The solutions were diluted 100-fold into PBS in a 96-well plate and mixed. The absorbance of the PBS-containing plate was measured prior to addition of the test agents to determine the background absorbance. After 2 h, the presence of precipitate was detected by turbidity (absorbance at 540 nm). […] The solubility limit is reported as the highest experimental concentration with no evidence of turbidity.

[3] = tested on: human keratinocytes (HaCaT); test: In vitro cytotoxicity against HaCaT (MTS); format: cell-based; conditions: 2 h incubation
Method: Compound 17 was assayed at concentrations of 8, 16, 32, 64, 128, and 256 μg/mL against an immortal keratinocyte cell line (HaCaT) in order to determine the potential toxic effect against mammalian cells in vitro. Cells were cultured in Dulbeco's modified Eagle's medium (Sigma-Aldrich, St. Louis, Mo., USA) with 10% fetal bovine serum (USA Scientific, Inc.) at 37° C. with 5% CO2. Controls received DMSO alone at a concentration equal to that in drug-treated cell samples. The cells were incubated with the compounds in a 96-well plate at 37° C. and 5.0% CO2 for 2 h prior to addition of the assay reagent MTS 3-(4,5-dimethylthiazol-2-yl)-5-(3-carboxymethoxyphenyl)-2-(4-sulfophenyl)-2H-tetrazolium) (Promega, Madison, Wis., USA). Corrected absorbance readings (actual absorbance readings for each treatment […]) were taken using a kinetic ELISA microplate reader (Molecular Devices, Sunnyvale, Calif., USA). The quantity of viable cells after treatment with each compound is expressed as a percentage of the control, DMSO.

[4] = Plasma pharmacokinetics after single oral dose in rats; format: in vivo, Sprague-Dawley (SD) rats
Method: This assay has been conducted at a credited bioequivalence center (http://www.grc-me.com/pk_pd.html). Pharmacokinetic studies were performed in male naïve Sprague-Dawley (SD) rats, (three animals) following Institutional Animal Care and Use Committee guidelines. Oral dosing was administered by gavage in a vehicle containing 5% ethanol, 45% PEG 400, and 50% water. Blood samples were collected over a 24 h period post dose into Vacutainer tubes containing EDTA-K2. Plasma was isolated, and the concentration of compound 17 in plasma was determined with LC/MS/MS after protein precipitation with acetonitrile.
Non-compartmental pharmacokinetic analysis was performed on plasma concentration data to calculate pharmacokinetic parameters using Kinetica® 2000 (release 4.4.1).

MRSA (USA300) = test: Time-kill assay; format: cell-based, Staphylococcus aureus; conditions: MRSA US300, 3.0×MIC
Method: Aliquots (100 μL) were taken from each sample after 2, 4, 6, 8, 10, 12, and 24 hours, serially diluted in phosphate-buffered saline, and transferred to Trypticase soy agar (TSA) (Becton, Dickinson and Company, Sparks, Md., USA) plates. Plates were incubated at 37° C. for at least 16 hours before counting viable CFU/mL to determine the time required to reduce the bacterial cell count by 3-log10.

Caco-2 cells = test: Caco-2 bidirectional permeability assay
[5] = Table 6, single oral dose (30 mg/Kg) to rats
[6] = male, Sprague-Dawley, rat, plasma, Table 6, single oral dose (30 mg/Kg) to rats

microsomal CLint ([1]; NADPH omitted, read-out: NADPH-free Clint): 0.5 µL/min/mg
half-life ([1]; NADPH omitted, read-out: NADPH-free t1/2): > 1 h
microsomal CLint ([1]; with NADPH, read-out: NADPH-dependent CLint): 3 to 7.5 µL/min/mg
half-life ([1]; with NADPH, read-out: NADPH-dependent t1/2): 5.13 h
MIC (VRSA10; read-out: MIC): 1 µg/mL (≈ 2.95 µM)
MIC (VRE ATCC 700221; read-out: MIC): 2 µg/mL (≈ 5.89 µM)
solubility at 2 h [2]: 55 µM (≈ 18.7 µg/mL)
thalf [4, 5]: 8.24 h
λz [4, 5]: 0.19 h⁻¹
MRT ([4]; male, Sprague-Dawley, rat, plasma, po, text b112, SD rats, 50 mg/Kg orally, read-out: in vivo mean residence time (MRT)): ~8 h
AUC [4, 6]: 100000 ng·h/mL
AUC(0-t) [4, 6]: 83200 ng·h/mL
Tmax [4, 6]: 4.67 h
MRT ([4]; male, Sprague-Dawley, rat, plasma, Table 6, single oral dose (30 mg/Kg) to rats, read-out: MRT (mean residence time)): 7.74 h
Cmax ([4]; male, Sprague-Dawley, rat, po, text b112, SD rats, 50 mg/Kg orally, plasma): 9300 ng/mL
Cmax ([4]; male, Sprague-Dawley, rat, Table 6, single oral dose (30 mg/Kg) to rats, plasma): 9330 ng/mL
Mean A→B Papp (Caco-2 cells; Caco-2, apical to basolateral): 1.6 ×10⁻⁶ cm/s
Mean B→A Papp (Caco-2 cells; Caco-2, basolateral to apical): 2.8 ×10⁻⁶ cm/s
Efflux ratio (Caco-2 cells; Papp (B→A)/Papp (A→B)): 1.8
Structure (SMILES): CCCCc1ccc(-c2nc(C)c(-c3ccnc(NN)n3)s2)cc1 [Compound 17, 2-(4-Butylphenyl)-5-(2-hydrazinopyrimidin-4-yl)-4-methylthiazole]
MBC (VRSA10; read-out: MBC): 2 µg/mL (≈ 5.89 µM)
MBC (VRE ATCC 700221; read-out: MBC): 8 µg/mL (≈ 23.6 µM)
nontoxic up to a concentration of [3]: 64 µg/mL
time required to reduce the MRSA inoculum to zero colony forming units (MRSA (USA300)): ≤ 2 h
